From patent publication US6916846B2, “Coumermycin analogs as chemical dimerizers of chimeric proteins” (Merck & Co. Inc., priority 2000, dated 2005)
Read-outs that look alike come from different tables or passages of the source.

What was measured:
[1] = tested on: STAT5b-GyrB fusion proteins
Method: To evaluate the effectiveness of the analogs of the present invention to act as chemical dimerizers of chimeric proteins, a BAF cell proliferation assay was performed.
BAF Cell Proliferation Assay
We have transfected BAF Cells with the human IL2 Receptor β chain. These transfected cells respond to human IL-2 by increasing their rate of cellular proliferation. This can be assayed by measuring the amount of tritiated thymidine that these cells incorporate into their DNA. One of the signaling proteins activated by IL-2 is the transcription factor STAT5b. This activation of STAT5b is responsible, in part, for the growth-promoting effects of IL-2.
STAT5b is activated by dimerization, an event that is dependent on its phosphorylation and which requires interaction of STAT5b with a ligand bound activated receptor. We can mimic this activation of STAT5b by transfecting BAF cells with a fusion protein consisting of the GyrB domain (the24 kDa amino-terminal fragment of bacterial DNA gyrase, amino acids 2-220) fused to the carboxy-terminus of STAT5b. Addition of the symmetrically dimeric antibiotic coumermycin artificially forces the dimerization of STAT5b-GyrB fusion proteins and results in an increased rate of cell growth that can be measured by the cell's ability to incorporate thymidine. This provides an assay to determine the ability of coumermycin analogs to promote dimerization of STAT5b-GyrB fusion proteins.
The assay is run as follows: BAF cells transfected with the human IL-2 receptor β chain and STAT5b-GyrB are washed twice in phosphate-buffered saline. They are then re-suspended in BAF cell media that lacks IL-2 and placed in a 96-well plate. Increasing amounts of coumermycin, or coumermycin analogs are then added to different wells in a 96-well plate and the cells are incubated overnight. Twenty-four hours later the cell media is spiked with tritiated thymidine and the cells are incubated for an additional 16 hours. The cells are subsequently harvested with a Wallac cell harvester and the amount of tritiated thymidine incorporated is measured using a β scintillation counter.
Set up for BAF proliferation assay was as follows: Spin down cells and wash one time in PBS. Resuspended in BAF cell media without cytokine at 2×10^5 cells/ml. added 100 μl/well or 2×10^4 cells. The compounds were prepared at 2 mg/ml (equivalent to 1.8 nM±5%). Plates were set up so that each condition equaled 1 row of 12 (n=number of wells/row=12). DMSO being utilized as an initial control Compound 5 was prepared in concentrations of 1.6, 16, 163, 450, and 900 nM, and 1.8 μM in DMSO, and as a second control, IL-2 growth factor was added to coumermycin. Two novenamine anologs, Comparative Compounds (CCmpd) 1 and 2, below were also use in this example as control.
The compounds were re-suspended in dimethylsulfoxide (DMSO) at a concentration of 2 mg/ml. […] Next, the cells were washed 2 times with PBS. The re-suspended cells were present at a concentration of 1×10^5 cells /ml in BAF media (RPMI, 10% FCS (fetal calf serum), 1% NEAA (non-essential amino acid), 1% L-G-lu, P/S and Hepes) without IL-2, added 100 μl to well (equal to 1×10^4 cells/well).
The compounds were prepared in as follows: DMSO was used as a control; each of the 5 compounds were combined with DMSO at concentrations of 1.8 μM, 900 nM, 450 nM, 90 nM 9 nM, and 900 nM. As a second control, coumermycin in IL-2 was utilized. Each solution at the aforementioned concentration condition, along with BAF cells, was placed in 1 row (12 wells) of a 96 well plate. Thereafter, 100 μL of compound (twice the concentration) was added to the wells.

[2] = tested on: STAT5b-GyrB fusion proteins; test: Inhibition assay in BAF cells, all wells with 90 nM coumermycin; type: cell-based, murine; set-up: unit not given here; settings: Table 6
Method: An inhibition assay was also conducted for Compounds 1 and 2. For this assay, all wells contained a DMSO concentration of 90 nM of coumermycin. Compounds 1 and 2 were added at concentrations of 1.8 μM, 900 nM, 90 nM and 9 nM. The conditions of the assay were identical to those referenced early in this example, except that one-third of the amount of 3-H thymidine was used.

[3] = Table 3, Example 2, 900 pM, 1×10^4 cells/well
[4] = Table 2, Example 1, stimulus 1.6 nM, 2×10^4 cells/well
[5] = Table 2, Example 1, stimulus 16.3 nM
[6] = Table 2, Example 1, stimulus 163 nM
[7] = Table 2, Example 1, stimulus 450 nM
[8] = Table 2, Example 1, stimulus 900 nM
[9] = Table 2, Example 1, stimulus 1.8 μM
[10] = Cou. 90 nM plus inhibitor 90 nM
[11] = Cou. 90 nM plus inhibitor 900 nM
[12] = Cou. 90 nM plus inhibitor 1800 nM

Row | Structure (SMILES) | Prolif. (cpm) [1, 3] [cpm] | Prolif. (cpm) ([1]; Table 3, Example 2, 9 nM) | Prolif. (cpm) ([1]; Table 3, Example 2, 90 nM) | Prolif. (cpm) ([1]; Table 3, Example 2, 450 nM) | Prolif. (cpm) ([1]; Table 3, Example 2, 900 nM) | Prolif. (cpm) ([1]; Table 3, Example 2, 1.8 μM) | Prolif. (cpm) ([1]; Table 7, Example 5, 900 pM) | Prolif. (cpm) ([1]; Table 7, Example 5, 9 nM) | Prolif. (cpm) ([1]; Table 7, Example 5, 90 nM) | Prolif. (cpm) ([1]; Table 7, Example 5, 450 nM) | Prolif. (cpm) ([1]; Table 7, Example 5, 900 nM) | Prolif. (cpm) ([1]; Table 7, Example 5, 1.8 μM) | Prolif. [1, 4] | Prolif. [1, 5] | Prolif. [1, 6] | Prolif. [1, 7] | Prolif. [1, 8] | Prolif. [1, 9] | further results
1 | COC1C(OC(=O)c2ccc(C)[nH]2)C(O)C(Oc2ccc3c(O)c(NC(=O)c4ccc(C(=O)Nc5c(O)c6ccc(OC7OC(C)(C)C(OC)C(OC(=O)c8ccc(C)[nH]8)C7O)c(C)c6oc5=O)cc4)c(=O)oc3c2C)OC1(C)C (stereo not drawn) [Cmpd 8] | 17973 | 19377 | 20715 | 22936 | 23858 | 22772 |  |  |  |  |  |  |  |  |  |  |  |  | 
2 | COC1C(OC(N)=O)C(O)C(Oc2ccc3c(O)c(NC(=O)c4cc(=O)cc(C(=O)Nc5c(O)c6ccc(OC7OC(C)(C)C(OC)C(OC(N)=O)C7O)c(C)c6oc5=O)o4)c(=O)oc3c2C)OC1(C)C (stereo not drawn) [CCmpd 3, reference compound] |  |  |  |  |  |  | 32299 | 33921 | 33671 | 33712 | 31968 | 28434 |  |  |  |  |  |  | 
3 | COC1C(OC(=O)c2ccc(C)[nH]2)C(O)C(Oc2ccc3c(O)c(NC(=O)COCCOCC(=O)Nc4c(O)c5ccc(OC6OC(C)(C)C(OC)C(OC(=O)c7ccc(C)[nH]7)C6O)c(C)c5oc4=O)c(=O)oc3c2C)OC1(C)C (stereo not drawn) [Cmpd 6] |  |  |  |  |  |  |  |  |  |  |  |  | 14954 | 14710 | 13351 | 12190 | 12872 | 10832 | 
4 | COC1C(OC(N)=O)C(O)C(Oc2ccc3c(O)c(NC(=O)COCCOCCOCC(=O)Nc4c(O)c5ccc(OC6OC(C)(C)C(OC)C(OC(N)=O)C6O)c(C)c5oc4=O)c(=O)oc3c2C)OC1(C)C (stereo not drawn) [CCmpd 2, reference compound] |  |  |  |  |  |  |  |  |  |  |  |  | 14761 | 14459 | 14516 | 13568 | 12281 | 11676 | 
5 | COC1C(OC(=O)c2ccc(C)[nH]2)C(O)C(Oc2ccc3c(O)c(NC(=O)c4ccc(Oc5ccc(C(=O)Nc6c(O)c7ccc(OC8OC(C)(C)C(OC)C(OC(=O)c9ccc(C)[nH]9)C8O)c(C)c7oc6=O)cc5)cc4)c(=O)oc3c2C)OC1(C)C (stereo not drawn) [Cmpd 2] |  |  |  |  |  |  | 36052 | 38236 | 42674 | 47023 | 46989 | 46345 |  |  |  |  |  |  | Prolif. ([2]; Cou. 90 nM plus inhibitor 9 nM): 7654; Prolif. [2, 10]: 7316; Prolif. [2, 11]: 8068; Prolif. [2, 12]: 8165; Prolif. (cpm) ([1]; Table 5, Example 4, 900 pM): 6014 cpm; Prolif. (cpm) ([1]; Table 5, Example 4, 9 nM): 6031 cpm; Prolif. (cpm) ([1]; Table 5, Example 4, 90 nM): 6623 cpm; Prolif. (cpm) ([1]; Table 5, Example 4, 450 nM): 7513 cpm; Prolif. (cpm) ([1]; Table 5, Example 4, 900 nM): 7798 cpm; Prolif. (cpm) ([1]; Table 5, Example 4, 1.8 μM): 7825 cpm
6 | COC1C(OC(=O)c2ccc(C)[nH]2)C(O)C(Oc2ccc3c(O)c(NC(=O)COCCOCCOCC(=O)Nc4c(O)c5ccc(OC6OC(C)(C)C(OC)C(OC(=O)c7ccc(C)[nH]7)C6O)c(C)c5oc4=O)c(=O)oc3c2C)OC1(C)C (stereo not drawn) [Cmpd 5] |  |  |  |  |  |  |  |  |  |  |  |  | 15270 | 14277 | 14139 | 12732 | 12315 | 11751 | 
7 | COC1C(OC(N)=O)C(O)C(Oc2ccc3c(O)c(NC(=O)c4ccc(Oc5ccc(C(=O)Nc6c(O)c7ccc(OC8OC(C)(C)C(OC)C(OC(N)=O)C8O)c(C)c7oc6=O)cc5)cc4)c(=O)oc3c2C)OC1(C)C (stereo not drawn) [CCmpd 4, reference compound] |  |  |  |  |  |  | 35624 | 35985 | 36764 | 36763 | 35379 | 31918 |  |  |  |  |  |  | 
8 | COC1C(OC(=O)c2ccc(C)[nH]2)C(O)C(Oc2ccc3c(O)c(NC(=O)c4ccc(C(=O)Nc5c(O)c6ccc(OC7OC(C)(C)C(OC)C(OC(=O)c8ccc(C)[nH]8)C7O)c(C)c6oc5=O)nc4)c(=O)oc3c2C)OC1(C)C (stereo not drawn) [Cmpd 3] | 16313 | 16767 | 19920 | 22221 | 22824 | 21389 |  |  |  |  |  |  |  |  |  |  |  |  | 
9 | COC1C(OC(=O)c2ccc(C)[nH]2)C(O)C(Oc2ccc3c(O)c(NC(=O)c4ccc(C(=O)Nc5c(O)c6ccc(OC7OC(C)(C)C(OC)C(OC(=O)c8ccc(C)[nH]8)C7O)c(C)c6oc5=O)s4)c(=O)oc3c2C)OC1(C)C (stereo not drawn) [Cmpd 9] | 16826 | 18126 | 19177 | 20889 | 22210 | 20367 |  |  |  |  |  |  |  |  |  |  |  |  | 
10 | COC1C(OC(=O)c2ccc(C)[nH]2)C(O)C(Oc2ccc3c(O)c(NC(=O)c4cncc(C(=O)Nc5c(O)c6ccc(OC7OC(C)(C)C(OC)C(OC(=O)c8ccc(C)[nH]8)C7O)c(C)c6oc5=O)c4)c(=O)oc3c2C)OC1(C)C (stereo not drawn) [Cmpd 4] | 20204 | 19290 | 19731 | 20726 | 22817 | 23135 |  |  |  |  |  |  |  |  |  |  |  |  | 
11 | COC1C(OC(=O)c2ccc(C)[nH]2)C(O)C(Oc2ccc3c(O)c(NC(=O)c4cc(=O)cc(C(=O)Nc5c(O)c6ccc(OC7OC(C)(C)C(OC)C(OC(=O)c8ccc(C)[nH]8)C7O)c(C)c6oc5=O)o4)c(=O)oc3c2C)OC1(C)C (stereo not drawn) [Cmpd 1] |  |  |  |  |  |  | 31865 | 34279 | 33933 | 35212 | 33301 | 31029 |  |  |  |  |  |  | Prolif. ([2]; Cou. 90 nM plus inhibitor 9 nM): 7713; Prolif. [2, 10]: 7683; Prolif. [2, 11]: 7597; Prolif. [2, 12]: 7271; Prolif. ([1]; Table 4, Example 3, 900 pM): 7156; Prolif. ([1]; Table 4, Example 3, 9 nM): 7653; Prolif. ([1]; Table 4, Example 3, 90 nM): 7487; Prolif. ([1]; Table 4, Example 3, 450 nM): 7209; Prolif. ([1]; Table 4, Example 3, 900 nM): 7092; Prolif. ([1]; Table 4, Example 3, 1.8 μM): 6397
12 | COC1C(OC(=O)c2ccc(C)[nH]2)C(O)C(Oc2ccc3c(O)c(NC(=O)c4cc(C(=O)Nc5c(O)c6ccc(OC7OC(C)(C)C(OC)C(OC(=O)c8ccc(C)[nH]8)C7O)c(C)c6oc5=O)[nH]n4)c(=O)oc3c2C)OC1(C)C (stereo not drawn) [Cmpd 7] | 16520 | 16599 | 17690 | 20553 | 20619 | 20207 |  |  |  |  |  |  |  |  |  |  |  |  | 
13 | COC1C(OC(=O)c2ccc(C)[nH]2)C(O)C(Oc2ccc3c(O)c(NC(=O)c4c[nH]c(C(=O)Nc5c(O)c6ccc(OC7OC(C)(C)C(OC)C(OC(=O)c8ccc(C)[nH]8)C7O)c(C)c6oc5=O)c4C)c(=O)oc3c2C)OC1(C)C (stereo not drawn) [Cou., coumermycin] | 18071 | 20551 | 25219 | 27515 | 30752 | 30664 | 36503 | 44455 | 51248 | 60293 | 64831 | 68728 | 16137 | 16261 | 16836 | 18842 | 21057 | 23199 | Prolif. ([2]; Cou. 90 nM with DMSO in place of inhibitor): 7595; Prolif. ([1]; Table 4, Example 3, 900 pM): 7422; Prolif. ([1]; Table 4, Example 3, 9 nM): 8792; Prolif. ([1]; Table 4, Example 3, 90 nM): 9860; Prolif. ([1]; Table 4, Example 3, 450 nM): 10832; Prolif. ([1]; Table 4, Example 3, 900 nM): 11470; Prolif. ([1]; Table 4, Example 3, 1.8 μM): 12308; Prolif. (cpm) ([1]; Table 5, Example 4, 900 pM): 6063 cpm; Prolif. (cpm) ([1]; Table 5, Example 4, 9 nM): 6750 cpm; Prolif. (cpm) ([1]; Table 5, Example 4, 90 nM): 7595 cpm; Prolif. (cpm) ([1]; Table 5, Example 4, 450 nM): 8457 cpm; Prolif. (cpm) ([1]; Table 5, Example 4, 900 nM): 8636 cpm; Prolif. (cpm) ([1]; Table 5, Example 4, 1.8 μM): 8610 cpm
14 | COC1C(OC(N)=O)C(O)C(Oc2ccc3c(O)c(NC(=O)COCCOCC(=O)Nc4c(O)c5ccc(OC6OC(C)(C)C(OC)C(OC(N)=O)C6O)c(C)c5oc4=O)c(=O)oc3c2C)OC1(C)C (stereo not drawn) [CCmpd 1, reference compound] |  |  |  |  |  |  |  |  |  |  |  |  | 15741 | 14691 | 13628 | 12465 | 11935 | 11057 | 
